Usually IC50 stands for the midpoint of a concentration-inhibition curve.

Where a name gives a salt, the structure may show the parent alone.

Chain of PD-1/PD-L1 (Q9NZQ7 18-239): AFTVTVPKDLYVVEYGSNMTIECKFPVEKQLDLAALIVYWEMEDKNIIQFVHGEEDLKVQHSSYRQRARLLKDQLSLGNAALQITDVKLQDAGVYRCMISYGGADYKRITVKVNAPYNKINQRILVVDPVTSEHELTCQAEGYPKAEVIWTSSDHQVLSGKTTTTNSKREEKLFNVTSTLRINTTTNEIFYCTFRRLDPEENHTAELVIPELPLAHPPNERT

The experiment addresses PD-1/PD-L1 (Homo sapiens (Human), UniProt Q9NZQ7). The experiment in a line: PD-1/PD-L1 Homogenous Time-Resolved Fluorescence (HTRF) binding assay. The following applies: PD-1-Ig (20 nM final)/PD-L1-His (10 nM final) binding assay. The text has this: The ability of the compounds of the invention to bind to PD-L1 was investigated using a PD-1/PD-L1 Homogenous Time-Resolved Fluorescence (HTRF) binding assay.
The interaction of PD-1 and PD-L1 can be assessed using soluble, purified preparations of the extracellular domains of the two proteins. The PD-1 and PD-L1 protein extracellular domains were expressed as fusion proteins with detection tags, for PD-1, the tag was the Fc portion of Immunoglobulin (PD-1-Ig) and for PD-L1 it was the 6 histidine motif (PD-L1-His). All binding studies were performed in an HTRF assay buffer consisting of dPBS supplemented with 0.1% […] bovine serum albumin and 0.05% (v/v) Tween-20. For the h/PD-L1-His binding assay, inhibitors were pre-incubated with PD-L1-His (10 nM final) for 15m in 4 μl of assay buffer, followed by addition of PD-1-Ig (20 nM final) in 1 μl of assay buffer and further incubation for 15 m. HTRF detection was achieved using europium crypate-labeled anti-Ig (1 nM final) and allophycocyanin (APC) labeled anti-His (20 nM final). Antibodies were diluted in HTRF detection buffer and 5 μl was dispensed on top of the binding reaction. The reaction mixture was allowed to equilibrate for 30 minutes and the resulting signal (665 nm/620 nm ratio) was obtained using an EnVision fluorometer. Additional binding assays were established between the human proteins PD-1-Ig/PD-L2-His (20 & 5 nM, respectively) and CD80-His/PD-L1-Ig (100 & 10 nM, respectively).
Recombinant Proteins: Human PD-1 (25-167) with a C-terminal human Fc domain of immunoglobulin G (Ig) epitope tag [hPD-1 (25-167)-3S-IG] and human PD-L1 (18-239) with a C-terminal His epitope tag [hPD-L1(18-239)-TVMV-His] were expressed in HEK293T cells and purified sequentially by ProteinA affinity chromatography and size exclusion chromatography. Human PD-L2-His and CD80-His was obtained through commercial sources.
Homogenous Time-Resolved Fluorescence (HTRF) Assays of Binding of Soluble PD-1 to Soluble PD-L1. Soluble PD-1 and soluble PD-L1 refers to proteins with carboxyl-end truncations that remove the transmembrane-spanning regions and are fused to heterologous sequences, specifically the Fc portion of the human immunoglobuling G sequence (Ig) or the hexahistidine epitope tag (His). All binding studies were performed in an HTRF assay buffer consisting of dPBS supplemented with 0.1% (w/v) bovine serum albumin and 0.05% (v/v) Tween-20. For the PD-1-Ig/PD-L1-His binding assay, inhibitors were pre-incubated with PD-L1-His (10 nM final) for 15m in 4 μl of assay buffer, followed by addition of PD-1-Ig (20 nM final) in 1 μl of assay buffer and further incubation for 15 m. PD-L1 fusion proteins from either human, cynomologous macaques, mouse, or other species were used. HTRF detection was achieved using europium crypate-labeled anti-Ig monoclonal antibody (1 nM final) and allophycocyanin (APC) labeled anti-His monoclonal antibody (20 nM final). Antibodies were diluted in HTRF detection buffer and 5 μl was dispensed on top of binding reaction. The reaction was allowed to equilibrate for 30 minutes and signal (665 nm/620 nm ratio) was obtained using an EnVision fluorometer. Additional binding assays were established between PD-1-Ig/PD-L2-His (20 and 5 nM, respectively), CD80-His/PD-L1-Ig (100 and 10 nM, respectively) and CD80-His/CTLA4-Ig (10 and 5 nM, respectively).
Recombinant Proteins. Carboxyl-truncated human PD-1 (amino acids 25-167) with a C-terminal human Ig epitope tag [hPD-1 (25-167)-3S-IG] and human PD-L1 (amino acids 18-239) with a C-terminal His epitope tag [hPD-L1(19-239)-tobacco vein mottling virus protease cleavage site (TVMV)-His] were expressed in HEK293T cells and purified sequentially by recombinant Protein A affinity chromatography and size exclusion chromatography. Human PD-L2-His (Sino Biologicals), CD80-His (Sino Biologicals), CTLA4-Ig (RnD Systems) were all obtained through commercial sources.
`CCn1cc(COc2cc(OCc3cccc(-c4ccc5c(c4)OCCO5)c3C)c(Cl)cc2CN[C@@](C)(CO)C(=O)O)cn1` [Example 1003, (S)-2-((5-Chloro-4-((3-(2,3-dihydrobenzo[b][1,4]dioxin-6-yl)-2-methylbenzyl)oxy)-2-((1-ethyl-1H-pyrazol-4-yl)methoxy)benzyl)amino)-3-hydroxy-2-methylpropanoic acid]: the IC50 came out at 5.8 nM. The compound `Cc1c(COc2cc(OCc3cncc(C(=O)NCCCN(C)C)c3)c(CN3CC[C@H](O)C3)cc2Cl)cccc1-c1ccc2c(c1)OCCO2` [Example 2007, (S)-5-((4-chloro-5-((3-(2,3-dihydrobenzo[b][1,4]dioxin-6-yl)-2-methylbenzyl)oxy)-2-((3-hydroxypyrrolidin-1-yl)methyl)phenoxy)methyl)-N-(3-(dimethylamino)propyl)nicotinamide] had an IC50 of 3.4 nM. This IC50 lies about 1.7-fold lower than the previous one.

Compound `COC(=O)C1(O)CCN(CCOc2cc(OCc3cccc(-c4ccc5c(c4)OCCO5)c3C)c(Cl)cc2CN[C@](C)(CO)C(=O)O)CC1` [Example 1052, (R)-2-((5-Chloro-4-((3-(2,3-dihydrobenzo[b][1,4]dioxin-6-yl)-2-methylbenzyl)oxy)-2-(2-(4-hydroxy-4-(methoxycarbonyl)piperidin-1-yl)ethoxy)benzyl)amino)-3-hydroxy-2-methylpropanoic acid] displayed an IC50 of 1.3 nM.

Take `COC(=O)CCSc1cncc(COc2cc(OCc3cccc(-c4ccc5c(c4)OCCO5)c3C)c(Cl)cc2CN2CCCC[C@H]2C(=O)O)c1` [Example 1007, (S)-1-(5-Chloro-4-((3-(2,3-dihydrobenzo[b][1,4]dioxin-6-yl)-2-methylbenzyl)oxy)-2-((5-((3-methoxy-3-oxopropyl)thio)pyridin-3-yl)methoxy)benzyl)piperidine-2-carboxylic acid]: the IC50 came out at 27.6 nM.

In the case of `Cc1c(COc2cc(OCc3cccc(CN)c3)c(CN3CCCC[C@H]3C(=O)O)cc2Cl)cccc1-c1ccc2c(c1)OCCO2` [Example 1017, (S)-1-(2-((3-(Aminomethyl)benzyl)oxy)-5-chloro-4-((3-(2,3-dihydrobenzo[b][1,4]dioxin-6-yl)-2-methylbenzyl)oxy)benzyl)piperidine-2-carboxylic acid, bis-trifluoroacetic acid salt], the IC50 was 20.2 nM. `Cc1c(COc2cc(OCCN3CC[C@@H](O)C3)c(CN[C@](C)(CO)C(=O)O)cc2Cl)cccc1-c1ccc2c(c1)OCCO2` [Example 1022, (R)-2-((5-Chloro-4-((3-(2,3-dihydrobenzo[b][1,4]dioxin-6-yl)-2-methylbenzyl)oxy)-2-(2-((R)-3-hydroxypyrrolidin-1-yl)ethoxy)benzyl)amino)-3-hydroxy-2-methylpropanoic acid] yielded an IC50 of 2.7 nM. As for `Cc1c(COc2cc(OCc3cncc(S(N)(=O)=O)c3)c(CN[C@@](C)(CO)C(=O)O)cc2Cl)cccc1-c1ccc2c(c1)OCCO2` [Example 1019, (S)-2-((5-Chloro-4-((3-(2,3-dihydrobenzo[b][1,4]dioxin-6-yl)-2-methylbenzyl)oxy)-2-((5-sulfamoylpyridin-3-yl)methoxy)benzyl)amino)-3-hydroxy-2-methylpropanoic acid], the IC50 was 4.1 nM. Take `CCn1cc(COc2cc(OCc3cccc(-c4ccc5c(c4)OCCO5)c3C)c(Cl)cc2CN[C@H](CO)C(=O)O)cn1` [Example 1005, (R)-2-((5-Chloro-4-((3-(2,3-dihydrobenzo[b][1,4]dioxin-6-yl)-2-methylbenzyl)oxy)-2-((1-ethyl-1H-pyrazol-4-yl)methoxy)benzyl)amino)-3-hydroxypropanoic acid]: the IC50 came to 7.9 nM. To `Cc1c(COc2cc(OCc3cncc(C(=O)N[C@@H](CO)C(=O)O)c3)c(CN3CC[C@H](O)C3)cc2Cl)cccc1-c1ccc2c(c1)OCCO2` [Example 2009, (S)-2-(5-((4-chloro-5-((3-(2,3-dihydrobenzo[b][1,4]dioxin-6-yl)-2-methylbenzyl)oxy)-2-(((S)-3-hydroxypyrrolidin-1-yl)methyl)phenoxy)methyl)nicotinamido)-3-hydroxypropanoic acid] belongs 4.6 nM; to `Cc1c(COc2cc(OC[C@@H](C)CO)c(CN3CCCC[C@H]3C(=O)O)cc2Cl)cccc1-c1ccc2c(c1)OCCO2` [Example 1034, (S)-1-(5-chloro-4-((3-(2,3-dihydrobenzo[b][1,4]dioxin-6-yl)-2-methylbenzyl)oxy)-2-((S)-3-hydroxy-2-methylpropoxy)benzyl)piperidine-2-carboxylic acid], 3.9 nM; to `Cc1c(COc2cc(OC[C@H](C)CO)c(CN3CCCC[C@H]3C(=O)O)cc2Cl)cccc1-c1ccc2c(c1)OCCO2` [Example 1031, (S)-1-(5-Chloro-4-((3-(2,3-dihydrobenzo[b][1,4]dioxin-6-yl)-2-methylbenzyl)oxy)-2-((R)-3-hydroxy-2-methylpropoxy)benzyl)piperidine-2-carboxylic acid], 14.7 nM.

For `Cc1c(COc2cc(OCc3cnn(CC(=O)O)c3)c(CN[C@@](C)(CO)C(=O)O)cc2Cl)cccc1-c1ccc2c(c1)OCCO2` [Example 1016, (S)-2-((2-((1-(Carboxymethyl)-1H-pyrazol-4-yl)methoxy)-5-chloro-4-((3-(2,3-dihydrobenzo[b][1,4]dioxin-6-yl)-2-methylbenzyl)oxy)benzyl)amino)-3-hydroxy-2-methylpropanoic acid], the IC50 is 5.4 nM. Against the preceding compound, the IC50 is about 2.7-fold lower. Consider `Cc1c(COc2cc(OCC(=O)N3CCS(=O)(=O)CC3)c(CN3CCCC[C@H]3C(=O)O)cc2Cl)cccc1-c1ccc2c(c1)OCCO2` [Example 1061, (S)-1-(5-chloro-4-((3-(2,3-dihydrobenzo[b][1,4]dioxin-6-yl)-2-methylbenzyl)oxy)-2-(2-(1,1-dioxidothiomorpholino)-2-oxoethoxy)benzyl)piperidine-2-carboxylic acid], for which the IC50 was 455 nM. To `Cc1c(COc2cc(OCC3CCOCC3)c(CN[C@](C)(CO)C(=O)O)cc2Cl)cccc1-c1ccc2c(c1)OCCO2` [Example 1045, (R)-2-((5-Chloro-4-((3-(2,3-dihydrobenzo[b][1,4]dioxin-6-yl)-2-methylbenzyl)oxy)-2-((tetrahydro-2H-pyran-4-yl)methoxy)benzyl)amino)-3-hydroxy-2-methylpropanoic acid] belongs 4.4 nM; to `Cc1c(COc2cc(OCCN3CCC(O)(C(=O)O)CC3)c(CNC(C)(CO)CO)cc2Cl)cccc1-c1ccc2c(c1)OCCO2` [Example 1056, 1-(2-(4-Chloro-5-((3-(2,3-dihydrobenzo[b][1,4]dioxin-6-yl)-2-methylbenzyl)oxy)-2-(((1,3-dihydroxy-2-methylpropan-2-yl)amino)methyl)phenoxy)ethyl)-4-hydroxypiperidine-4-carboxylic acid], 0.6 nM. `Cc1c(COc2cc(OCCCCN3CC[C@@H](O)C3)c(CN[C@](C)(CO)C(=O)O)cc2Cl)cccc1-c1ccc2c(c1)OCCO2` [Example 1026, (R)-2-((5-Chloro-4-((3-(2,3-dihydrobenzo[b][1,4]dioxin-6-yl)-2-methylbenzyl)oxy)-2-(4-((R)-3-hydroxypyrrolidin-1-yl)butoxy)benzyl)amino)-3-hydroxy-2-methylpropanoic acid] displayed an IC50 of 2.2 nM. Compared with the last compound, the IC50 is about 3.7-fold higher. Compound `COC(=O)C1(O)CCN(CCOc2cc(OCc3cccc(-c4ccc5c(c4)OCCO5)c3C)c(Cl)cc2CNC(C)(CO)CO)CC1` [Example 1053, Methyl 1-(2-(4-chloro-5-((3-(2,3-dihydrobenzo[b][1,4]dioxin-6-yl)-2-methylbenzyl)oxy)-2-(((1,3-dihydroxy-2-methylpropan-2-yl)amino)methyl)phenoxy)ethyl)-4-hydroxypiperidine-4-carboxylate] displayed an IC50 of 1.4 nM.
